Measurements from patent publication US20240116985A1, “STAPLED PEPTIDES AND METHODS THEREOF” (priority 2020, published 2024).
Read-outs that look alike come from different tables or passages of the source.

Key:
[1] = target: T1, beta-catenin/TCF4 engagement (Homo sapiens, UniProt P35222); experiment: Nano-BRET target engagement assay (B-cat-Halo & TCF4-Luc in HEK293 cells); type: cell-based; conditions: read-out: NanoBRET Abs IC50
T1 construct: expressed in transfected cells; host or cells: HEK293
T1 sequence (P35222 1-781): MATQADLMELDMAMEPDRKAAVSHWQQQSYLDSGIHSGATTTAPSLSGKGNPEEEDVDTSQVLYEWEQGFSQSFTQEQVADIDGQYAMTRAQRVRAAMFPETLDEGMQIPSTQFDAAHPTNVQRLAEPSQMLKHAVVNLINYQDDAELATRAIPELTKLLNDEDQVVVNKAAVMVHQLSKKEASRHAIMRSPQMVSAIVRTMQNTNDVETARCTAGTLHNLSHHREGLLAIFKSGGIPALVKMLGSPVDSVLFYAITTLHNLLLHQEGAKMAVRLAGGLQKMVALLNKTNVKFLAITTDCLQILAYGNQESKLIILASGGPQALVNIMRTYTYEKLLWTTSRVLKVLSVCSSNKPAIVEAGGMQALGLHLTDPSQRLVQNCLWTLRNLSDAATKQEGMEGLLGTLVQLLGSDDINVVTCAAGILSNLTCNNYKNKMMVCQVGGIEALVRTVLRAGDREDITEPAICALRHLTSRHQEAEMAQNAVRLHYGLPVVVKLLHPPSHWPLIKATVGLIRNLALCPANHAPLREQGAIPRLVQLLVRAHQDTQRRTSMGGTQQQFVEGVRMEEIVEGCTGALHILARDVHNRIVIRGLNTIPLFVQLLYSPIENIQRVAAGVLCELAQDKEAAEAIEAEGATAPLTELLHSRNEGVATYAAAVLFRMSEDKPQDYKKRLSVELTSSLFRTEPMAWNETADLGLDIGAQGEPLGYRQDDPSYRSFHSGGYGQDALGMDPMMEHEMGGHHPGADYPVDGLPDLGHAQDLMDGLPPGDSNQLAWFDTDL

[2] = target: T2, full-length beta-Catenin (Uniprot ID P35222) (Homo sapiens, UniProt P35222); experiment: Fluorescence polarization IC50 (beta-catenin / 5FAM-TCF4 10-53 competition); type: binding
T2 construct: 10 nM full-length beta-Catenin (Uniprot ID P35222)
T2 sequence (P35222 1-781): T1 sequence (P35222 1-781)

[3] = fluorescence polarization; read-out: beta-Catenin FP IC50

For `CC(=O)N1CCC[C@]12CC=CCC1(CC=CCCCOC(=O)N3CC[C@@](C(=O)N[C@@H](Cc4ccsc4)C(=O)N[C@@H](Cc4csc5ccccc45)C(=O)N[C@@H](CCC(N)=O)C(N)=O)(C3)NC(=O)[C@H](CC(C)C)NC(=O)[C@H](Cc3ccccc3)NC(=O)[C@H](C)NC(=O)[C@H](C)NC(=O)[C@H](CC(=O)O)NC(=O)[C@H](CC(=O)O)NC1=O)NC(=O)[C@H](CC(C)(C)C)NC(=O)[C@H](CC(=O)O)NC2=O` (stereo partly drawn) [I-2156, Ac-PL3-Asp-Npg-B3-Asp-Asp-Ala-Ala-Phe-Leu-PyrS2-3Thi-BztA-Gln-NH2], the IC50 [1] was > 20000 nM and the IC50 [2, 3] was 387 nM.

For `CC(=O)N1CCC[C@]12CCCCC1(CCCCCCCOC(=O)N3CC[C@@](C(=O)N[C@@H](Cc4ccsc4)C(=O)N[C@@H](Cc4csc5ccccc45)C(=O)N[C@@H](CCC(N)=O)C(N)=O)(C3)NC(=O)[C@H](CC(C)C)NC(=O)[C@H](Cc3ccccc3)NC(=O)[C@H](C)NC(=O)[C@H](C)NC(=O)[C@H](CC(=O)O)NC(=O)[C@H](CC(=O)O)NC1=O)NC(=O)[C@H](CC(C)(C)C)NC(=O)[C@H](CC(=O)O)NC2=O` (stereo partly drawn) [I-2161, Ac-PL3-Asp-Npg-B3-Asp-Asp-Ala-Ala-Phe-Leu-PyrS3-3Thi-BztA-Gln-NH2], the IC50 [1] was > 20000 nM and the IC50 [2, 3] was 855 nM.

With `CC(=O)N1CCC[C@]12CCCCC1(CCCCCCCCOC(=O)N3CC[C@](C(=O)N[C@@H](Cc4ccsc4)C(=O)N[C@@H](Cc4csc5ccccc45)C(=O)N[C@@H](CCC(N)=O)C(N)=O)(C3)NC(=O)[C@H](CC(C)C)NC(=O)[C@H](Cc3ccccc3)NC(=O)[C@H](C)NC(=O)[C@H](C)NC(=O)[C@H](CC(=O)O)NC(=O)[C@H](CC(=O)O)NC1=O)NC(=O)[C@H](CC(C)(C)C)NC(=O)[C@H](CC(=O)O)NC2=O` (stereo partly drawn) [I-2162, Ac-PL3-Asp-Npg-B3-Asp-Asp-Ala-Ala-Phe-Leu-PyrS4-3Thi-BztA-Gln-NH2] the IC50 [1] was > 20000 nM and the IC50 [2, 3] was 1160 nM.

With `CC(=O)N1CCC[C@]12CC=CCCCC1(CCCC=CCCCOC(=O)N3CC[C@@](C(=O)N[C@@H](Cc4ccccc4)C(=O)N[C@@H](Cc4csc5ccccc45)C(=O)N[C@@H](CCO)C(N)=O)(C3)NC(=O)[C@H](CC(N)=O)NC(=O)[C@H](Cc3ccccc3)NC(=O)[C@H](C)NC(=O)[C@H](CCCCNC(C)C)NC(=O)[C@H](CCC(N)=O)NC(=O)[C@H](CC(=O)O)NC1=O)NC(=O)[C@H](CC1CCCCC1)NC(=O)[C@H](CC(N)=O)NC2=O` (stereo partly drawn) [I-2167, Ac-PL3-Asn-Cha-B5-Asp-Gln-iPrLys-Ala-Phe-Asn-PyrS2-Phe-BztA-Hse-NH2] the IC50 [1] was > 20000 nM and the IC50 [2, 3] was 199 nM.

`CC(=O)N1CCC[C@]12CC=CCCCC1(CCCC=CCCCOC(=O)N3CC[C@@](C(=O)N[C@@H](Cc4ccccc4C(N)=O)C(=O)N[C@@H](Cc4csc5ccccc45)C(=O)N[C@@H](CCO)C(N)=O)(C3)NC(=O)[C@H](CC(N)=O)NC(=O)[C@H](Cc3ccccc3)NC(=O)[C@H](C)NC(=O)[C@H](CCCCNC(C)C)NC(=O)[C@H](CCC(N)=O)NC(=O)[C@H](CC(=O)O)NC1=O)NC(=O)[C@H](CC1CCCCC1)NC(=O)[C@H](CC(N)=O)NC2=O` (stereo partly drawn) [I-2168, Ac-PL3-Asn-Cha-B5-Asp-Gln-iPrLys-Ala-Phe-Asn-PyrS2-2cbmf-BztA-Hse-NH2] was tested, and the IC50 [1] was > 20000 nM and the IC50 [2, 3] was 212 nM.

`CC(=O)N1CCC[C@]12CC=CCCCC1(CCCC=CCCCOC(=O)N3CC[C@@](C(=O)N[C@@H](Cc4ccsc4)C(=O)N[C@@H](Cc4ccc(Cl)c(Cl)c4)C(=O)N[C@@H](CCC(N)=O)C(N)=O)(C3)NC(=O)[C@H](CC(N)=O)NC(=O)[C@H](Cc3ccccc3)NC(=O)[C@H](C)NC(=O)[C@H](C)NC(=O)[C@H](CC(=O)O)NC(=O)[C@H](CC(=O)O)NC1=O)NC(=O)[C@H](CC(C)(C)C)NC(=O)[C@H](CC(=O)O)NC2=O` (stereo partly drawn) [I-2182, Ac-PL3-Asp-Npg-B5-Asp-Asp-Ala-Ala-Phe-Asn-PyrS2-3Thi-34C1F-Gln-NH2] showed an IC50 [1] of 11100 nM and an IC50 [2, 3] of 5 nM.

In the case of `CC(=O)N1CCC[C@]12CC=CCCCC1(CCCC=CCCCOC(=O)N3CC[C@@](C(=O)N[C@@H](Cc4ccsc4)C(=O)N[C@@H](Cc4ccc(Cl)c(Cl)c4)C(=O)N[C@@H](CCC(N)=O)C(N)=O)(C3)NC(=O)[C@H](CC(C)C)NC(=O)[C@H](Cc3ccccc3)NC(=O)[C@H](C)NC(=O)[C@H](C)NC(=O)[C@H](CC(=O)O)NC(=O)[C@H](CC(=O)O)NC1=O)NC(=O)[C@H](CC(C)(C)C)NC(=O)[C@H](CC(=O)O)NC2=O` (stereo partly drawn) [I-2183, Ac-PL3-Asp-Npg-B5-Asp-Asp-Ala-Ala-Phe-Leu-PyrS2-3Thi-34C1F-Gln-NH2], the IC50 [1] is reported as 5000 nM and the IC50 [2, 3] is reported as 5 nM.

`CC(=O)N1CCC[C@]12CC=CCCCC1(CCCC=CCCCOC(=O)N3CC[C@@](C(=O)N[C@@H](Cc4ccsc4)C(=O)N[C@@H](Cc4csc5ccccc45)C(=O)N[C@@H](CCC(N)=O)C(N)=O)(C3)NC(=O)[C@H](CC(C)C)NC(=O)[C@@H](Cc3cccc(S(=O)(=O)F)c3)NC(=O)[C@H](C)NC(=O)[C@H](C)NC(=O)[C@H](CN(CC(=O)O)CC(F)(F)F)NC(=O)[C@H](CC(=O)O)NC1=O)NC(=O)[C@H](CC(C)(C)C)NC(=O)[C@H](CC(=O)O)NC2=O` (stereo partly drawn) [I-2185, Ac-PL3-Asp-Npg-B5-Asp-TfeGA-Ala-Ala-3SO2F-Leu-PyrS2-3Thi-BztA-Gln-NH2] gave an IC50 [1] of 6100 nM and an IC50 ([2]; read-out: beta-Catenin FP IC50; fluorescence polarization) of 42 nM.

For `CC(=O)N1CCC[C@]12CC=CCCCC1(CCCC=CCCCOC(=O)N3CC[C@@](C(=O)N[C@@H](Cc4ccsc4)C(=O)N[C@@H](Cc4csc5ccccc45)C(=O)NC(CCCCNC(=O)c4ccc5c(c4)B(O)OC5)C(N)=O)(C3)NC(=O)[C@H](CC(C)C)NC(=O)[C@H](Cc3ccccc3)NC(=O)[C@H](C)NC(=O)[C@H](C)NC(=O)[C@H](CN(CC(=O)O)CC(F)(F)F)NC(=O)[C@H](CC(=O)O)NC1=O)NC(=O)[C@H](CC(C)(C)C)NC(=O)[C@H](CC(=O)O)NC2=O` (stereo partly drawn) [I-2187, Ac-PL3-Asp-Npg-B5-Asp-TfeGA-Ala-Ala-Phe-Leu-PyrS2-3Thi-BztA-BnBoroleK-NH2], the IC50 [1] was 10800 nM and the IC50 ([2]; read-out: beta-Catenin FP IC50) was 28 nM.

`CC(=O)N1CCC[C@]12CC=CCCCC1(CCCC=CCCCOC(=O)N3CC[C@@](C(=O)N[C@@H](Cc4ccsc4)C(=O)N[C@@H](Cc4csc5ccccc45)C(=O)N[C@@H](C)C(N)=O)(C3)NC(=O)[C@H](CC(C)C)NC(=O)[C@H](Cc3ccccc3)NC(=O)[C@H](C)NC(=O)[C@H](CC(=O)N(C)C)NC(=O)[C@H](Cc3cccc(C(=O)O)c3)NC(=O)[C@H](CC(=O)O)NC1=O)NC(=O)[C@H](CC(C)(C)C)NC(=O)[C@H](CC(=O)O)NC2=O` (stereo partly drawn) [I-2188, Ac-PL3-Asp-Npg-B5-Asp-3COOHF-Me2Asn-Ala-Phe-Leu-PyrS2-3Thi-BztA-Ala-NH2] showed an IC50 [1] of 7600 nM and an IC50 [2, 3] of 11 nM.

In the case of `CCCC[C@@H]1NC(=O)[C@H](Cc2cccc(C(=O)O)c2)NC(=O)[C@H](CC(=O)O)NC(=O)C2(CCCC=CCCCOC(=O)N3CC[C@@](C(=O)N[C@@H](Cc4ccsc4)C(=O)N[C@@H](Cc4csc5ccccc45)C(=O)N[C@H](C(N)=O)C(C)C)(C3)NC(=O)[C@H](CC(C)C)NC(=O)[C@H](Cc3ccccc3)NC(=O)[C@H](C)NC1=O)CCCC=CC[C@]1(CCCN1C(C)=O)C(=O)N[C@@H](CC(=O)O)C(=O)N[C@@H](CC(C)(C)C)C(=O)N2` (stereo partly drawn) [I-2189, Ac-PL3-Asp-Npg-B5-Asp-3COOHF-nLeu-Ala-Phe-Leu-PyrS2-3Thi-BztA-Val-NH2], the IC50 [1] is reported as 33400 nM and the IC50 [2, 3] is reported as 83 nM.

Molecule `CC(=O)N1CCC[C@]12CC=CCCCC1(CCCC=CCCCOC(=O)N3CC[C@@](C(=O)N[C@@H](Cc4ccsc4)C(=O)N[C@@H](Cc4csc5ccccc45)C(=O)N[C@H](C(N)=O)C(C)C)(C3)NC(=O)[C@H](CC(C)C)NC(=O)[C@H](Cc3ccccc3)NC(=O)[C@H](C)NC(=O)[C@H](CO)NC(=O)[C@H](Cc3cccc(C(=O)O)c3)NC(=O)[C@H](CC(=O)O)NC1=O)NC(=O)[C@H](CC(C)(C)C)NC(=O)[C@H](CC(=O)O)NC2=O` (stereo partly drawn) [I-2190, Ac-PL3-Asp-Npg-B5-Asp-3COOHF-Ser-Ala-Phe-Leu-PyrS2-3Thi-BztA-Val-NH2] has an IC50 [1] of 33400 nM and an IC50 [2, 3] of 28 nM.

With `CC(=O)N1CCC[C@]12CC=CCCCC1(CCCC=CCCCOC(=O)N3CC[C@@](C(=O)N[C@@H](Cc4ccsc4)C(=O)N[C@@H](Cc4csc5ccccc45)C(=O)N[C@H](C(N)=O)C(C)C)(C3)NC(=O)[C@H](CC(C)C)NC(=O)[C@H](Cc3ccccc3)NC(=O)[C@H](C)NC(=O)[C@H](CC(=O)N(C)C)NC(=O)[C@H](Cc3cccc(C(=O)O)c3)NC(=O)[C@H](CC(=O)O)NC1=O)NC(=O)[C@H](CC(C)(C)C)NC(=O)[C@H](CC(=O)O)NC2=O` (stereo partly drawn) [I-2191, Ac-PL3-Asp-Npg-B5-Asp-3COOHF-Me2Asn-Ala-Phe-Leu-PyrS2-3Thi-BztA-Val-NH2] the IC50 [1] was 29500 nM and the IC50 [2, 3] was 16 nM.

Work on `CC(=O)N1CCC[C@]12CC=CCCCC1(CCCC=CCCCOC(=O)N3CC[C@@](C(=O)N[C@@H](Cc4ccsc4)C(=O)N[C@@H](Cc4csc5ccccc45)C(=O)N[C@@H](CC(C)(C)C)C(N)=O)(C3)NC(=O)[C@H](CC(C)C)NC(=O)[C@H](Cc3ccccc3)NC(=O)[C@H](C)NC(=O)[C@H](CCC(N)=O)NC(=O)[C@H](Cc3cccc(C(=O)O)c3)NC(=O)[C@H](CC(=O)O)NC1=O)NC(=O)[C@H](CC(C)(C)C)NC(=O)[C@H](CC(=O)O)NC2=O` (stereo partly drawn) [I-2192, Ac-PL3-Asp-Npg-B5-Asp-3COOHF-Gln-Ala-Phe-Leu-PyrS2-3Thi-BztA-Npg-NH2] yielded an IC50 [1] of 16100 nM and an IC50 [2, 3] of 22 nM.
